Assay results published in patent US6797699B1, “Neuroprotective agents” (University of Southampton, priority 1997, dated 2004).

How the values were obtained:
[1] = system: anaesthetised male Wistar rats; test: Blood flow studies (mean arterial blood pressure after intravenous injection); assay type: in vivo, Wistar rat; conditions: for MABP (mmHg): pre-injection 79.9 ± 3.9, four observations
Protocol: Adult male Wistar rats (250-300 g) were initially anesthetized with 4% halothane and subsequently anaesthesia was maintained with 1.5% halothane mixed in […] in O2. The femoral artery was cannulated for continuous blood pressure recording. The femoral vein was also cannulated to allow injection of the compound. Animals were allowed 15-30 minutes to stabilise and were then injected with 0.25-0.3 ml of a 1 mg/ml solution of L-ArgSp. Following injection of the compound, rats were continuously monitored for 60 minutes. After this time, anaesthesia was terminated and rats allowed to waken. In these studies, measurement was taken of the mean arterial blood pressure (MABP) induced following an intravenous injection of 1 mg/kg L-ArgSp into the femoral vein of anaesthetised male Wistar rats. MABP was calculated immediately prior to injection of L-ArgSp (pre-injection) and 30 seconds and 10 minutes post-injection. Data are presented as mean […] of four observations.

[2] = system: Adult male Wistar rats; test: Global forebrain ischaemia in vivo; parameters: species or system Wistar rat; conditions: 1 mg/kg 15 minutes prior to 15 minutes global forebrain ischaemia; assessed 24 hours after; vs vehicle
Protocol: Animals were anaesthetised as described above, and a thermistor inserted into the left temporal muscle for recording of body temperature. A dorsal midline skin incision was made in the neck and using microsurgery, the vertebral arteries were identified and occluded using a monopolar electrode at the level of C 1. The incision was closed, animals allowed to recover from anaesthesia and returned to their cages for 24 hours. After this time, animals were re-anaesthetised and the common carotid arteries (CCAs) exposed. Animals were divided into two groups. Group 1 received 0.25-0.3 ml of a 1 mg/ml solution of L-ArgSp (final dose 1 mg/kg) while group 2 received 0.25-0.3 ml of sterile distilled water. Samples were prepared independently and randomised prior to injection. Animals were injected 15 minutes prior to occlusion of the CCAs with microvascular clips for 15 minutes. After this time, the skin was closed, and animals allowed to recover. After 24 hours animals were terminally anaesthetised and transcardially perfused with 1% paraformaldehyde and the brains removed and processed for histology. A blinded observer determined the number of live and dead neurones in the CA1, CA3 fields of the pyramidal cell layer, and the dentate gyrus granule cell layer from haematoxylin and eosin stained coronal sections.

[3] = system: NMDA receptor-mediated neurotoxicity in organotypic hippocampal slice cultures; test: NMDA receptor-mediated neurotoxicity in organotypic hippocampal slice cultures; assay type: cell-based, Wistar rat; conditions: 300 μM throughout the experiment, PI at 24 hours
Protocol: Organotypic hippocampal slice cultures were prepared and maintained as described above. NMDA was prepared as a 50 mM stock solution in distilled water, and diluted as required in SF medium. Neurotoxicity was induced by placing cultures in SF medium containing either 10 μM or […] NMDA for 180 minutes. After this time, cultures were replated in SF-medium and maintained for 24 hours in the incubator. Either 300 μM L-ArgSp or vehicle (SF medium) was added to the culture medium pre-, during and post-NMDA exposure. Throughout the duration of the experiment, 5 μg/ml PI was included in the medium. After 24 hours, neuronal damage was determined by PI fluorescence imaging and quantified as described previously.

N=C(N)NCCCC(N)C(=O)NCCCNCCCCN [Compound A, N′-L-Arginylspermidine]
effect on body temperature ([1]; 1 mg/kg intravenous): No effect | effect on heart rate ([1]; 1 mg/kg intravenous): No effect | ill effects on the animals following wakening ([1]; 1 mg/kg intravenous): no ill effects | reduction in MABP (significance, in words) ([1]; 1 mg/kg intravenous): not statistically significant | % Charge ([1]; 1 mg/kg intravenous, 30 secs post-injection vs pre-injection): −9.6% | MABP (mmHg) ([1]; 1 mg/kg intravenous, 30 secs post-injection): 72.2 ± 5.1 mmHg | % Charge ([1]; 1 mg/kg intravenous, 10 minutes post-injection vs pre-injection): −0.9% | MABP (mmHg) ([1]; 1 mg/kg intravenous, 10 minutes post-injection): 79.2 ± 6.5 mmHg | blood pressure recordings (in words) ([1]; 1 mg/kg intravenous, 60 minutes after injection): identical to those 10 minutes post-drug administration | long-term behavioural deficits ([1]; 1 mg/kg, five rats recovered for three days): no long-term behavioural deficits have been observed | effect on blood flow compared with FTX (in words) ([1]; rat, in vivo): less adverse effect on blood flow than FTX | neuronal loss in CA1, CA3 and dentate gyrus (in words) [2]: neuronal loss was significantly attenuated | damage produced by NMDA (PI fluorescence, in words) ([3]; 10 μM NMDA for 180 minutes): did not reduce the damage | damage produced by NMDA (PI fluorescence, in words) ([3]; 30 μM NMDA for 180 minutes): did not reduce the damage
